{"source": "patent US20140294753A1", "about": "“NOVEL USE OF GANODERMIC ACIDS FOR TREATING CANCER” (DOUBLE CRANE BIOTECHNOLOGY CO. LTD, priority 2013, published 2014)", "key": {"[1]": {"test_system": "human breast carcinoma cell line MDA-MB-231", "assay": "Cell activity analysis (acid phosphatase, ACP)", "assay_type": "cell-based", "settings": "Breast Cancer MDA-MB-231, treated at least 48 hrs, read-out: IC50 (50% cell activity inhibited)", "description": "(§1) Cell lines used in the present disclosure include human lung adenocarcinoma cell line A549, human hepatocarcinoma cell line Huh7, human colon carcinoma cell line HCT116, human non-small cell lung cancer cell line PC-9, gefitinib-resistant human non-small cell lung cancer cell line PC-9 (PC9-IR), and human breast carcinoma cell line MDA-MB-231.\n(§2) Each cell lines were cultured and maintained in Dulbecco's modified Eagle media (DMEM) supplemented with 1% fetal bovine serum (FBS), 100 IU/ml penicillin, 100 ng/ml streptomycin, 2 mM glutamine, non-essential amino acids and sodium pyruvate in 5% CO2 at 37° C. Cells were grown and maintained in Petri dishes (each was 10 cm in diameter) until reached 80% confluence, then were subject to cell passages. Briefly, cells were first washed with phosphate buffer solution (PBS, 3 ml) once, then treated with 0.05% Trypsin/0.025% EDTA solution (1 mL) for 5 min so that the attached cells become suspended. Collected the suspended cells, added 2 mL fresh culture media to neutralize any remaining activity of trypsin. Adjusted the cell density by adding appropriate amounts of culture medium to the cell suspension, which was then used to seed the culture plates. The plates were then returned to the incubator and cultured in accordance with the steps described above.\n(§3) Cells were seeded in 96-well plates with a density of 3,000 cells/well and cultured in accordance with the procedures described above.\n(§4) Acid Phosphatase analysis\n(§5) Cell activity may be derived from the acid phosphatase (ACP) activity of a cell.\n(§6) In operation, cultured cells in each well were washed with PBS (200 μl), then a reacting solution (100 μl) (10 mM p-NPP, 0.1 M sodium acetate, 0.1% Triton X-100, pH 5.5) was added and allowed to react with the cells for 30-40 min at 37° C. The reaction was subsequently stopped with a basic solution (10 μl, 0.1N NaOH). Adsorption at the wavelength of 405 nm was then measured, and the concentration that inhibited 50% cell activity (IC50) was derived from the absorbance measurement.\n(§7) The effects of GMAS on various cancer cell lines, including colon cancer, hepatoma, breast cancer, and lung cancer, were respectively assessed by cell activity analysis using ACP activity as an indicator. Results are depicted in FIG. 1."}, "[2]": {"test_system": "human colon carcinoma cell line HCT116", "assay": "Cell activity analysis (acid phosphatase, ACP)", "assay_type": "cell-based", "settings": "Colon Cancer HCT-116, treated at least 48 hrs, read-out: IC50 (50% cell activity inhibited)", "description": "as §1, §2, §3, §4, §5, §6, §7"}, "[3]": {"test_system": "human hepatocarcinoma cell line Huh7", "assay": "Cell activity analysis (acid phosphatase, ACP)", "assay_type": "cell-based", "settings": "Hepatoma Huh-7, treated at least 48 hrs, read-out: IC50 (50% cell activity inhibited)", "description": "as §1, §2, §3, §4, §5, §6, §7"}, "[4]": {"test_system": "human lung adenocarcinoma cell line A549", "assay": "Cell activity analysis (acid phosphatase, ACP)", "assay_type": "cell-based", "settings": "Lung Cancer A549, treated at least 48 hrs, read-out: IC50 (50% cell activity inhibited)", "description": "as §1, §2, §3, §4, §5, §6, §7"}, "[5]": {"test_system": "HCT-116 cells", "assay": "Wound healing assay (cell migration)", "assay_type": "cell-based, human", "settings": "up to 72 hrs", "description": "(§8) Wound healing assay is one of the earliest developed methods to study directional cell migration in vitro, by mimicking cell migration during wound healing in vivo. The basic steps involve creating a “wound” in a cell monolayer, capturing the images at the beginning and at regular intervals during cell migration to close the wound, and comparing the images to quantify the migration rate of the cells.\nBriefly, the assay was carried out using IBIDI culture-inserts and 24-well plates (IBIDI GmbH, Martinsried, Germany). The culture-inserts were respectively placed into each well. Aliquots of […] containing 3×10^4 cells (PC-9, MDA-MB-231 or CL1-5 cells) were added into the two reservoirs of the same insert and incubated for 8 hrs, then the inserts were gently removed from each wells, then culture medium (500 μL, 10% FBS) containing GMAS (25 or 50 μM) or solvent vehicle (i.e., the control) was added to each well. The cells in the culture wells were photographed respectively at 0, 12, 24, 48 and 72 hrs using an inverted microscope. Finally, the migration area or the “wound” area was quantified by Metamorph software (Molecular Devices).\nThe effect of GMAS on the migration capability of colon cancer cells was assessed using the wound healing assay as described in the section of “Materials and Methods”. Results are illustrated in FIG. 3."}, "[6]": {"test_system": "PC-9 cells", "assay": "Wound healing assay (cell migration)", "assay_type": "cell-based, human", "settings": "5 μM GMAS; lung cancer cells (PC-9, FIG. 4)", "description": "as §8\nBriefly, the assay was carried out using IBIDI culture-inserts and 24-well plates (IBIDI GmbH, Martinsried, Germany). The culture-inserts were respectively placed into each well. Aliquots of […] containing 3×10^4 cells (PC-9, MDA-MB-231 or CL1-5 cells) were added into the two reservoirs of the same insert and incubated for 8 hrs, then the inserts were gently removed from each wells, then culture medium (500 μL, […]) or solvent vehicle (i.e., the control) was added to each well. The cells in the culture wells were photographed respectively at 0, 12, 24, 48 and 72 hrs using an inverted microscope. Finally, the migration area or the “wound” area was quantified by Metamorph software (Molecular Devices)."}, "[7]": {"test_system": "human non-small cell lung cancer cell line PC-9", "assay": "Cell activity analysis (acid phosphatase, ACP)", "settings": "PC-9, 72 h, read-out: IC50 (50% cell activity inhibited)", "protocol": "(§9) Each cell lines were cultured and maintained in Dulbecco's modified Eagle media (DMEM) supplemented with 1% fetal bovine serum (FBS), 100 IU/ml penicillin, 100 ng/ml streptomycin, 2 mM glutamine, non-essential amino acids and sodium pyruvate in 5% CO2 at 37° C. Cells were grown and maintained in Petri dishes (each was 10 cm in diameter) until reached 80% confluence, then were subject to cell passages. […] Collected the suspended cells, added 2 mL fresh culture media to neutralize any remaining activity of trypsin. Adjusted the cell density by adding appropriate amounts of culture medium to the cell suspension, which was then used to seed the culture plates. The plates were then returned to the incubator and cultured in accordance with the steps described above.\n(§10) In operation, cultured cells in each well were washed with PBS (200 μl), then a reacting solution (100 μl) (10 mM p-NPP, 0.1 M sodium acetate, 0.1% Triton X-100, pH 5.5) was added and allowed to react with the cells for 30-40 min at 37° C. The reaction was subsequently stopped with a basic solution (10 μl, 0.1N NaOH). […]"}, "[8]": {"test_system": "gefitinib-resistant human non-small cell lung cancer cell line PC-9 (PC9-IR)", "assay": "Cell activity analysis (acid phosphatase, ACP)", "protocol": "as §9, §10"}}}
{"smiles": "CC(=O)O[C@H]1CC[C@]2(C)C3=CC[C@]4(C)[C@@H]([C@H](C)CC/C=C(\\C)C(=O)O)C[C@H](OC(C)=O)[C@@]4(C)C3=CC[C@H]2C1(C)C", "note": "[GMAS, ganodermic acid S]", "values": [{"measurement": "IC50", "setting": "[1]", "result": 20.4, "unit": "µM"}, {"measurement": "IC50", "setting": "[2]", "result": 8, "unit": "µM"}, {"measurement": "IC50", "setting": "[3]", "result": 19.1, "unit": "µM"}, {"measurement": "IC50", "setting": "[4]", "result": 7.9, "unit": "µM"}, {"measurement": "wound closing phenomenon (migration of colon cancer cells)", "setting": "[5]; 25 μM GMAS", "result": "slightly inhibited"}, {"measurement": "wound closing phenomenon (migration of colon cancer cells)", "setting": "[5]; 50 μM GMAS", "result": "significantly suppressed"}, {"measurement": "reduction of the migrated area as compared with control", "setting": "[6]", "result": 50, "unit": "%"}, {"measurement": "IC50", "setting": "[7]", "result": 56.1, "unit": "µM"}, {"measurement": "IC50", "setting": "[8]; Homo sapiens, 72 h, read-out: IC50 (50% cell activity inhibited)", "result": 62.8, "unit": "µM"}, {"measurement": "Resistant Ratio (PC9-IR/PC9)", "setting": "[8]; IC50 of PC9-IR divided by IC50 of PC-9", "result": 1.1}]}
